The values that follow come from patent US20260035387A1 (BIOGEN MA INC., priority 2022, published 2026).

The assay concerns mutant Huntington (HTT) protein. Kind of assay: HTT Mutant HTRF iPSC assay (mHTT protein lowering). It counts as cell-based. To be noted: human iPSC derived from a HTT patient with a poly-Q49 mutation. (In general: TR-FRET usually uses a lanthanide donor and a delayed reading to cut background.)

Regarding `Cc1cn2cc(NC(=O)c3nc4ccc(N5CCC6(CCN6)C5)nc4s3)cc(F)c2n1` (stereo not drawn) [Compound 112, N-(8-fluoro-2-methylimidazo[1,2-a]pyridin-6-yl)-5-(1,6-diazaspiro[3.4]octan-6-yl)thiazolo[5,4-b]pyridine-2-carboxamide], the IC50 (usually the point on the concentration scale where inhibition reaches its midpoint) is below 100 nM.
Then `COc1c(NC(=O)c2cc3ccc(N4C[C@@H]5CN(C)C[C@@H]54)nc3s2)cc2cn(C)nc2c1F` [Compound 235, N-(7-fluoro-6-methoxy-2-methyl-2H-indazol-5-yl)-6-((1S,5R)-3-methyl-3,6-diazabicyclo[3.2.0]heptan-6-yl)thieno[2,3-b]pyridine-2-carboxamide], with below 100 nM; and `Cc1cn2cc(NC(=O)c3cc4ccc(N5CC6CCN(C)C6C5)nc4s3)ccc2n1` (stereo in doubt) [Compound 43, 6-((3aR,6aR)-1-methylhexahydropyrrolo[3,4-b]pyrrol-5(1H)-yl)-N-(2-methylimidazo[1,2-a]pyridin-6-yl)thieno[2,3-b]pyridine-2-carboxamide], with 100 to 1000 nM.
For the molecule `COc1nc(NC(=O)c2cc3ccc(N4CCC(N(C)C)C4)nc3s2)cn2cc(C)nc12` (stereo not drawn) [Compound 191, 6-(3-(dimethylamino)pyrrolidin-1-yl)-N-(8-methoxy-2-methylimidazo[1,2-a]pyrazin-6-yl)thieno[2,3-b]pyridine-2-carboxamide], the IC50 is below 100 nM.
Then `CN(C)C1CCN(c2ccc3cc(C(=O)Nc4cc(F)c5nn(C)cc5c4)sc3n2)C1` (stereo not drawn) [Compound 65, 6-(3-(dimethylamino)pyrrolidin-1-yl)-N-(7-fluoro-2-methyl-2H-indazol-5-yl)thieno[2,3-b]pyridine-2-carboxamide], with below 100 nM; and `COc1cc2nn(C)cc2cc1NC(=O)c1cc2nc(N3CCC(N4CCC4)C3)ccc2o1` (stereo not drawn) [Compound 164, 5-(3-(azetidin-1-yl)pyrrolidin-1-yl)-N-(6-methoxy-2-methyl-2H-indazol-5-yl)furo[3,2-b]pyridine-2-carboxamide], with 100 to 1000 nM.
Then `COc1cc2nn(C)cc2cc1NC(=O)c1cc2nc(N3CC[C@H](N4CCC4)C3)ccc2o1` [Compound 173, (S)-5-(3-(azetidin-1-yl)pyrrolidin-1-yl)-N-(6-methoxy-2-methyl-2H-indazol-5-yl)furo[3,2-b]pyridine-2-carboxamide], with 100 to 1000 nM; and `Cc1cn2cc(NC(=O)c3cc4ccc(N5CCC6(CN(C)C6)C5)nc4s3)nc(C)c2n1` [Compound 226, N-(2,8-dimethylimidazo[1,2-a]pyrazin-6-yl)-6-(2-methyl-2,6-diazaspiro[3.4]octan-6-yl)thieno[2,3-b]pyridine-2-carboxamide], with below 100 nM.
For `Cc1cn2cc(NC(=O)c3nc4ccc(N5C[C@@H]6CCN[C@@H]6C5)nc4s3)cc(F)c2n1` [Compound 105, N-(8-fluoro-2-methylimidazo[1,2-a]pyridin-6-yl)-5-((3aS,6aS)-hexahydropyrrolo[3,4-b]pyrrol-5(1H)-yl)thiazolo[5,4-b]pyridine-2-carboxamide] the value was below 100 nM.
The molecule `Cc1cn2cc(NC(=O)c3cc4ccc(N5CCC(C6(N)CC6)C5)nc4s3)cc(F)c2n1` (stereo not drawn) [Compound 78, 6-(3-(1-aminocyclopropyl)pyrrolidin-1-yl)-N-(8-fluoro-2-methylimidazo[1,2-a]pyridin-6-yl)thieno[2,3-b]pyridine-2-carboxamide] came in with a 50% inhibitory concentration (IC50) below 100 nM.
For `COc1cc2nn(C)cc2cc1NC(=O)c1cc2nc(N3CCC4(CCCN4C)C3)ccc2o1` (stereo not drawn) [Compound 167, N-(6-methoxy-2-methyl-2H-indazol-5-yl)-5-(1-methyl-1,7-diazaspiro[4.4]nonan-7-yl)furo[3,2-b]pyridine-2-carboxamide] the value was below 100 nM; for `COc1c(NC(=O)c2cc3ccc(N4CCC5(CCCN5C)C4)nc3s2)cn2cc(C)nc2c1F` (single isomer, unassigned) [Compound 239], below 100 nM.
The molecule `Cc1cn2cc(NC(=O)c3cc4ccc(N5CCN(C)CC5)nc4s3)nc(C)c2n1` [Compound 3, N-(2,8-dimethylimidazo[1,2-a]pyrazin-6-yl)-6-(4-methylpiperazin-1-yl)thieno[2,3-b]pyridine-2-carboxamide] came in with a half-maximal inhibitory concentration (IC50) of 100 to 1000 nM.
Then `COc1cc2nn(C)cc2cc1NC(=O)c1cc2ccc(C3CCN(C)CC3)nc2s1` [Compound 178, N-(6-methoxy-2-methyl-2H-indazol-5-yl)-6-(1-methylpiperidin-4-yl)thieno[2,3-b]pyridine-2-carboxamide], with below 100 nM; and `COc1cn2nc(C)cc2cc1NC(=O)c1cc2ccc(N3CCC(N(C)C)C3)nc2s1` (single isomer, unassigned) [Compound 205], with below 100 nM.
Then `Cc1cn2cc(NC(=O)c3cc4nc(N5CC[C@@H](N(C)C)C5)ccc4o3)cc(F)c2n1` [Compound 166, (R)-5-(3-(dimethylamino)pyrrolidin-1-yl)-N-(8-fluoro-2-methylimidazo[1,2-a]pyridin-6-yl)furo[3,2-b]pyridine-2-carboxamide], with below 100 nM; and `Cc1cn2cc(NC(=O)c3nc4ccc(N5CCC(N(C)C)C5)nc4s3)ccc2n1` (stereo not drawn) [Compound 9, 5-[3-(dimethylamino)pyrrolidin-1-yl]-N-(2-methylimidazo[1,2-a]pyridin-6-yl)thiazolo[5,4-b]pyridine-2-carboxamide], with 1000 to 9000 nM.
Then `COc1cc2nn(C)cc2cc1NC(=O)c1cc2ccc(N[C@@H]3CC(C)(C)NC(C)(C)[C@@H]3F)nc2s1` (racemic) [Compound 260, 6-(((3R,4R)-3-fluoro-2,2,6,6-tetramethylpiperidin-4-yl)amino)-N-(6-methoxy-2-methyl-2H-indazol-5-yl)thieno[2,3-b]pyridine-2-carboxamide], with below 100 nM; and `COc1nc(NC(=O)c2nc3ccc(N4CCC5(CCCN5C)C4)nc3s2)cn2cc(C)nc12` (stereo not drawn) [Compound 109, N-(8-methoxy-2-methylimidazo[1,2-a]pyrazin-6-yl)-5-(1-methyl-1,7-diazaspiro[4.4]nonan-7-yl)thiazolo[5,4-b]pyridine-2-carboxamide], with below 100 nM; and `Cc1cn2cc(NC(=O)c3cc4ncc(C5CCCCN5)nc4s3)cc(F)c2n1` (stereo not drawn) [Compound 144, N-(8-fluoro-2-methylimidazo[1,2-a]pyridin-6-yl)-3-(piperidin-2-yl)thieno[2,3-b]pyrazine-6-carboxamide], with 1000 to 9000 nM.
`CCN1Cc2cccc(Nc3ccc4cc(C(=O)Nc5ccc6nc(C)cn6c5)sc4n3)c2C1` [Compound 46, 6-((2-ethylisoindolin-4-yl)amino)-N-(2-methylimidazo[1,2-a]pyridin-6-yl)thieno[2,3-b]pyridine-2-carboxamide] returned an IC50 of 1000 to 9000 nM.
In the case of `Cc1cc(NC(=O)c2cc3ccc(N4CCC(N(C)C)C4)nc3s2)cc2cn(C)nc12` (stereo not drawn) [Compound 4, N-(2,7-dimethyl-2H-indazol-5-yl)-6-(3-(dimethylamino)pyrrolidin-1-yl)thieno[2,3-b]pyridine-2-carboxamide], the IC50 lay within 100 to 1000 nM.
Then `Cc1cn2cc(NC(=O)c3cc4ccc(C5CCNC(C)(C)C5)nc4s3)cc(F)c2n1` (stereo not drawn) [Compound 176, 6-(2,2-dimethylpiperidin-4-yl)-N-(8-fluoro-2-methylimidazo[1,2-a]pyridin-6-yl)thieno[2,3-b]pyridine-2-carboxamide], with below 100 nM; and `Cc1cn2cc(NC(=O)c3cc4ccc(N5CCC(NCC6CC6)C5)nc4s3)cc(F)c2n1` (single isomer, unassigned) [Compound 210], with below 100 nM.
`Cc1cn2cc(NC(=O)c3nc4ccc(N5CCC(N6CCC6)C5)nc4s3)cc(F)c2n1` (single isomer, unassigned) [Compound 101]: the IC50 was below 100 nM.
For the molecule `Cc1cn2cc(NC(=O)c3cc4ccc(N5CCC6OCCN(C)C6C5)nc4s3)ccc2n1` (stereo not drawn) [Compound 15, 6-(4-methylhexahydro-2H-pyrido[4,3-b][1,4]oxazin-6(5H)-yl)-N-(2-methylimidazo[1,2-a]pyridin-6-yl)thieno[2,3-b]pyridine-2-carboxamide], the IC50 is 100 to 1000 nM.
For `Cc1cn2cc(NC(=O)c3cc4ccc(N5CCN(C6CC6)CC5)nc4s3)cc(F)c2n1` [Compound 79, 6-(4-cyclopropylpiperazin-1-yl)-N-(8-fluoro-2-methylimidazo[1,2-a]pyridin-6-yl)thieno[2,3-b]pyridine-2-carboxamide] the value was below 100 nM; for `Cc1cn2cc(NC(=O)c3nc4ccc(NC5CC(C)(C)NC(C)(C)C5)nc4s3)cc(F)c2n1` [Compound 103, N-(8-fluoro-2-methylimidazo[1,2-a]pyridin-6-yl)-5-((2,2,6,6-tetramethylpiperidin-4-yl)amino)thiazolo[5,4-b]pyridine-2-carboxamide], below 100 nM; for `Cc1cc(NC(=O)c2cc3ccc(N4C[C@@H](C)N[C@@H](C)C4)nc3s2)cc2cn(C)nc12` [Compound 2, N-(2,7-dimethylindazol-5-yl)-6-[(3S,5R)-3,5-dimethylpiperazin-1-yl]thieno[2,3-b]pyridine-2-carboxamide], below 100 nM.
For `Cc1cn2cc(NC(=O)c3nc4ccc(N5CC[C@H](N(C)C)C5)nc4s3)cc(F)c2n1` [Compound 93, (S)-5-(3-(dimethylamino)pyrrolidin-1-yl)-N-(8-fluoro-2-methylimidazo[1,2-a]pyridin-6-yl)thiazolo[5,4-b]pyridine-2-carboxamide] the value was below 100 nM; for `COc1cn2nc(C)cc2cc1NC(=O)c1cc2nc(N3C[C@@H]4CN(C)C[C@@H]43)ccc2o1` [Compound 171, N-(6-methoxy-2-methylpyrazolo[1,5-a]pyridin-5-yl)-5-((1S,5R)-3-methyl-3,6-diazabicyclo[3.2.0]heptan-6-yl)furo[3,2-b]pyridine-2-carboxamide], 100 to 1000 nM; for `Cc1cn2cc(NC(=O)c3cc4ccc(Nc5ccc6c(c5)N(C)CCN(C)C6)nc4s3)ccc2n1` [Compound 47, 6-((1,4-dimethyl-2,3,4,5-tetrahydro-1H-benzo[e][1,4]diazepin-8-yl)amino)-N-(2-methylimidazo[1,2-a]pyridin-6-yl)thieno[2,3-b]pyridine-2-carboxamide], 1000 to 9000 nM.
For `Cc1cn2cc(NC(=O)c3cc4nc(C5CCN(C)CC5)ccc4o3)cc(F)c2n1` [Compound 163, N-(8-fluoro-2-methyl-imidazo[1,2-a]pyridin-6-yl)-5-(1-methyl-4-piperidyl)furo[3,2-b]pyridine-2-carboxamide] the value was 100 to 1000 nM.
